We go through one molecule from patent US12534477B2, “Compound having KHK inhibitory effect” (HANGZHOU ZHONGMEIHUADONG PHARMACEUTICAL CO., LTD., priority 2019, dated 2026).

Like-named read-outs stand apart in the source and are kept apart here.

The target of one data set is CYP1A2 (Homo sapiens (Human), UniProt P05177). Format: in vitro ADME. The conditions noted are these: microsomes. The protocol: (§1) The inhibitory effect of test compounds on the activity of human hepatic microsomal cytochrome P450 isozymes (CYP1A2, CYP2C9, CYP2C19, CYP2D6 and CYP3A4) was determined.
(§2) First, the test compound (10 mM) was diluted in gradient to prepare working solutions (100×final concentration) with working solution concentrations: 5, 1.5, 0.5, 0.15, 0.05, 0.015, 0.005 mM, respectively, and at the same time, working solutions of each positive inhibitor of P450 isozymes (CYP1A2, CYP2C9, CYP2C19, CYP2D6 and CYP3A4) and its specific substrate mixture were prepared. Human liver microsomes frozen in a −80° C. refrigerator were thawed on ice, and diluted with PB (phosphate buffer) after all the human liver microsomes were dissolved, to prepare a working solution at a certain concentration (0.253 mg/mL). 20 μl substrate mixture was added to the reaction plate (20 μL PB was added to the Blank wells) while 158 μL human liver microsome working solution was added to the reaction plate which was placed on ice for later use. At this time, 2 μL of each concentration of the test compound (N=1) and the specific inhibitor (N=2) were added to the corresponding wells, and the corresponding organic solvents were added to the groups without inhibitors (the test compound or the positive inhibitor) as control samples (1:1 DMSO:MeOH for the test compound control sample, and 1:9 DMSO:MeOH for the positive control sample). After pre-incubation in 37° C. water bath for 10 min, 20 μL coenzyme factor (NADPH) solution was added to the reaction plate, and incubated in 37° C. water bath for 10 min. 400 μL cold acetonitrile solution (200 ng/mL Tolbutamide and Labetalol as the internal standard) was added to stop the reaction. The reaction plate was placed on a shaker and shaken for 10 min. The mixture was centrifuged at 4,000 rpm for 20 min, and 200 μl the supernatant was added to 100 μL water for sample dilution. Finally, the plate was sealed, shaken, mixed well and detected by LC/MS/MS.

In the next data set the target is CYP2C19 (Homo sapiens (Human), UniProt P33261). The data set can be described thus: Inhibitory activity on human liver microsomal cytochrome P450 isozymes. Format: in vitro ADME. The conditions noted are these: human liver microsomes. As to the method:
as §1, §2

Another data set concerns the target CYP2C9 (Homo sapiens (Human), UniProt P11712). The data set is described as above. Format: in vitro ADME. The conditions noted are these: human liver microsomes. As to the method:
as §1, §2

A further data set concerns the target CYP2D6 (Homo sapiens (Human), UniProt P10635). Described as above. The data set is classed as in vitro ADME. The conditions noted are these: human liver microsomes. As to the method: as §1, §2
The next data set deals with CYP3A4 (Homo sapiens (Human), UniProt P08684). The description is as above. Format: in vitro ADME. The conditions noted are these: human liver microsomes. As to the method:
as §1, §2

Data set [1] is described as follows: Pharmacokinetic evaluation in SD rats. The data set is classed as in vivo. The conditions noted are these: rat, plasma. The protocol: In vivo pharmacokinetics of compounds in SD rats were tested.
Pharmacokinetic profiles in rodents following intravenous and oral administration of the compounds were tested by standard protocols. In the experiment, candidate compounds were formulated as clear solutions or homogeneous suspensions, and were administered to rats by single intravenous injection (IV, 1 mpk) and oral administration (PO, 3 mpk). The vehicle for intravenous injection was a certain proportion of PEG400 in water, and the vehicle for oral administration was a certain proportion of methylcellulose and Tween 80 in water. Whole blood was collected, and plasma was prepared. Drug concentration was analyzed by LC-MS/MS, and pharmacokinetic parameters were calculated by Phoenix WinNonlin software.

Data set [2] in a line: Liver-blood ratio, tissue distribution in rats. Format: in vivo, SD rats. The conditions noted are these: PO 1 mpk; for concentration at 6 h: read-out: Brain tissue concentration; for concentration at 1.5 h: read-out: Liver tissue concentration. The protocol:
Tissue distribution of compounds in SD rats was tested.
In the experiment, candidate compounds were formulated as clear solutions and administered to rats in a single oral dose (PO, 1 mpk). The vehicle for oral administration was a certain proportion of methylcellulose and Tween 80 in water. Whole blood was collected at a certain time and plasma was prepared, and tissues were collected at the corresponding time and prepared into tissue homogenates. Drug concentration was analyzed by LC-MS/MS, and pharmacokinetic parameters were calculated by Phoenix WinNonlin software.

In data set [3] the test system is fructose metabolism in mice. The data set can be described thus: Acute fructose feeding experiment in mice. Format: in vivo. The conditions noted are these: compound 30 mpk, oral fructose 1 g/kg. As to the method:
The effect of test compounds on the fructose content in mice with high fructose intake was investigated.
All animals were acclimated for one week in an animal house, fed with normal chow and fasted for 16 hours before being given fructose.
1) The experiment began at −0.5 hr. A control group was given a certain volume of vehicle (a certain proportion of methylcellulose and Tween 80 in water), and an experimental group was given a certain dose of a solution of the compound (the administered volume was consistent with the vehicle).
2) 0.5 hour later and before administration of a fructose solution, a blood sample was collected at 0 hr, followed by oral administration of 1 g/kg of an aqueous fructose solution.
3) After the administration of fructose, blood samples were collected from saphenous vein of mice at 0.25, 0.5, 1, 2, 3 and 8 hr, and fructose concentration was analyzed by LC-MS/MS.

CYP2C19, sequence (P33261 whole entry): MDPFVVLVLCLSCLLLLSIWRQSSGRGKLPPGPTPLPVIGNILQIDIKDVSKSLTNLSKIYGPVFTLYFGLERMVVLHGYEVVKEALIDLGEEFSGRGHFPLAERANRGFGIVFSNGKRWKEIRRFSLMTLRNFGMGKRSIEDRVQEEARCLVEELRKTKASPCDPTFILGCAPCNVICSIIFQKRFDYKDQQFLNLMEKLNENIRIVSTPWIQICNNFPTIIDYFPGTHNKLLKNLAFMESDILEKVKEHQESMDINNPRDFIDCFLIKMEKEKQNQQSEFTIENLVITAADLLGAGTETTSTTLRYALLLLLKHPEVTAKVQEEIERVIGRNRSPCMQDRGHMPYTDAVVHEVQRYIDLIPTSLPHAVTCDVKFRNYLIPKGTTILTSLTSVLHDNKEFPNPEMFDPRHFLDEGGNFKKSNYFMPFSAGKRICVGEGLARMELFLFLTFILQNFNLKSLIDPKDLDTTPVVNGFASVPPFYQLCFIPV
CYP2D6, sequence (P10635 whole entry): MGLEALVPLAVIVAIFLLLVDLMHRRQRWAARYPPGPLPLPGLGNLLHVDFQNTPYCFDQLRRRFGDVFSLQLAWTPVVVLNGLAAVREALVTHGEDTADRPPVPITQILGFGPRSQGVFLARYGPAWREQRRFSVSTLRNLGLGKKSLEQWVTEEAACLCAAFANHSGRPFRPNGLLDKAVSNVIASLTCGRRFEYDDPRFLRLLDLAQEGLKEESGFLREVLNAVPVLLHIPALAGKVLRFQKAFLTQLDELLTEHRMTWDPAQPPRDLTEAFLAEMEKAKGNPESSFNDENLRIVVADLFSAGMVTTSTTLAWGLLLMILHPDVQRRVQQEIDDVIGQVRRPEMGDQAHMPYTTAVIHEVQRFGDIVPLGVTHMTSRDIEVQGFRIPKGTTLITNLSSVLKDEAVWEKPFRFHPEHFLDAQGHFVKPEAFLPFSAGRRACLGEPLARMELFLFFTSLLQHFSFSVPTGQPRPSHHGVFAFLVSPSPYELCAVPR
CYP1A2, sequence (P05177 whole entry): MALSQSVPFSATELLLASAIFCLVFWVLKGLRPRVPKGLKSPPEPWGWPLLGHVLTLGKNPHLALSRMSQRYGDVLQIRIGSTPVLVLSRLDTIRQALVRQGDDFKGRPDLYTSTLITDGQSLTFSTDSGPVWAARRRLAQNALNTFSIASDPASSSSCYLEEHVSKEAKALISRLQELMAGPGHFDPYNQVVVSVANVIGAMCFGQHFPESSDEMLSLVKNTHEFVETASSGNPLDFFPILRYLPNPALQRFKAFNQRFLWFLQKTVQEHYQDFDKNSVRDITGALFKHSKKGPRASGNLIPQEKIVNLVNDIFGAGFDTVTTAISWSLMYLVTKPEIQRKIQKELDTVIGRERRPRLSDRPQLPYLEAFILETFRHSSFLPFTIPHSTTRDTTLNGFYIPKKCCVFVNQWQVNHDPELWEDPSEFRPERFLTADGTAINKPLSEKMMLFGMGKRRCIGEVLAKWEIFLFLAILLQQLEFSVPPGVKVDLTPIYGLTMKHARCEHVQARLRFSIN
CYP2C9, sequence (P11712 whole entry): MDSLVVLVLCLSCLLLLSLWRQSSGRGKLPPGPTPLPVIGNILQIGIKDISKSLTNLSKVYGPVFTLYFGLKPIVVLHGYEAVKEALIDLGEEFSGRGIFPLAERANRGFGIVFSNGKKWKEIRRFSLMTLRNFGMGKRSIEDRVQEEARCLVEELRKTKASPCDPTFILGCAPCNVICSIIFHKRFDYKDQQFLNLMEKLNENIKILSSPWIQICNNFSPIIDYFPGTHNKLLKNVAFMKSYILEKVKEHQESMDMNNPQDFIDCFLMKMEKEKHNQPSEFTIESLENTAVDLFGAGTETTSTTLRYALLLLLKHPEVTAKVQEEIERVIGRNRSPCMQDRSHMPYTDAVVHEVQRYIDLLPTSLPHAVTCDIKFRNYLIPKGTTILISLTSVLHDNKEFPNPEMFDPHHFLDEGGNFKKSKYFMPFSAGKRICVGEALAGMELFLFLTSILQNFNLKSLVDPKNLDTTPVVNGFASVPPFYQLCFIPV
CYP3A4, sequence (P08684 whole entry): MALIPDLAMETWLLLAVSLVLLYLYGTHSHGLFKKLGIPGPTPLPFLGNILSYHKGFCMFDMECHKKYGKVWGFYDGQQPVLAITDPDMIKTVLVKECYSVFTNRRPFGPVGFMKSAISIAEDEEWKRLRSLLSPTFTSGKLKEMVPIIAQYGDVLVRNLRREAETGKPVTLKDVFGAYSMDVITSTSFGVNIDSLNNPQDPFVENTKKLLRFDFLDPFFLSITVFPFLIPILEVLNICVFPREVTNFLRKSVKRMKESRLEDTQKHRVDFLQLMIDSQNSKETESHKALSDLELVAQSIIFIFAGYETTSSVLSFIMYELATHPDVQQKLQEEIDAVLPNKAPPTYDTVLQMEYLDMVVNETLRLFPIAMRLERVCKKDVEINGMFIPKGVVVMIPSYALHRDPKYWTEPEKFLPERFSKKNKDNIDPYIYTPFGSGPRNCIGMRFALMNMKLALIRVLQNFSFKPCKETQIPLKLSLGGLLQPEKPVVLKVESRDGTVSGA

With `C[C@H]1CCN1c1nc(N2CC3(C[C@H]3C(=O)O)C2)c2c(n1)C(F)(F)CC2` [WX043], the IC50 against CYP1A2, against CYP2C19, at CYP2C9, against CYP2D6 and against CYP3A4 was greater than 50 µM each time. Besides, in data set [1] (1 mg/kg, IV 1 mpk, read-out: Clearance rate), the clearance stood at 5.37 mL/min/kg. In data set [1] (3 mg/kg, PO 3 mpk, read-out: Integral concentration AUC for PO), the AUC amounted to 12 µM·h. The half-life in data set [1] (IV 1 mpk and PO 3 mpk study, read-out: Half-life T1/2 (converted)) was 5.83 h. In data set [1] (IV 1 mpk, PO 3 mpk, read-out: Bioavailability F), the bioavailability is 70%. Further, the Brain-blood ratio in data set [2] (1.5 h) is listed as 0.016; in data set [2] (2.0 h) it was 0.014. Besides, the Liver-blood ratio in data set [2] (1.5 h) was 20.0; in data set [2] (2.0 h) it was 30.0; in data set [2] (6.0 h), 81.5. For the same molecule, the results for the Plasma concentration in data set [2] (1.5 h), in data set [2] (2.0 h) and in data set [2] (6.0 h) were 2025 nM, 916 nM and 246 nM, respectively. Besides, the concentration at 6 h in data set [2] (1.5 h) was determined as 30.6 nM; in data set [2] (2.0 h) it was 13.1 nM. The concentration at 1.5 h in data set [2] (1.5 h) came to 38250 nM; in data set [2] (2.0 h), 27800 nM; in data set [2] (6.0 h) it was 19800 nM. The “AUC of integral fructose concentration for dosed group” value in data set [3] was determined as 3504 nM·h. Also, the “AUC of integral fructose concentration of dosed group/AUC of Integral fructose concentration of control group” value in data set [3] worked out at 13.3.
